The subject of series [1] is lymph node cells. The experiment in a line: ovalbumin-induced proliferation in murine lymph cells (FIG. 13). Format: cell-based, Balb/C mice. Conditions: Mus musculus, OVA 200 μg/ml. From the text:
This example illustrates effects of the inventive compounds on ovalbumin-induced proliferation in murine lymph cells. Lymphnode cells contain a mixture of lymphoid cells: T-cells, B-cells and macrophages. Although proliferating cells in this assay are T-cells, the response obtained depends on type of antigen-presenting cell (e.g., macrophages) as well as elaboration of various immunoregulatory cytokines. Thus, this assay serves as a good model for T-cell mediated responses and as a valuable screening tool in identifying compounds useful in immunosuppressive therapeutic applications.
Murine T-cells proliferate in vitro in response to a soluble protein antigen if first primed with a corresponding antigen in vivo. This in vivo priming usually involves emulsifying the antigen in complete Freunds adjuvant and injecting this preparation into an appropriate site on a mouse. In this assay the antigen employed was chicken ovalbumin(OVA). Following emulsification in Freund's complete adjuvant, 50 μg of OVA were injected into both hind footpads of adult Balb/C mice. Fourteen days later the draining lymph nodes(popliteal) were removed and a single cell suspension was prepared in RPMI-1640 (10%FCS) medium. Two hundred thousand lymph node cells are then plated into wells of flat-bottom 96-well plates. Inventive compouds nos. 1410, 1553 (racemic), 1553(S), 1560 and 1565 were added to appropriate wells at various concentrations. OVA, at a final concentration of 200 μg/ml, was added to appropriate wells. Positive and negative controls were established on each plate, all assay variables being set up in quadruplicate.
The plates were incubated in a humidified, 5% CO2 incubator for 5 days. On the fifth day, 1 μCi of tritiated thymidine was added to each well and the plates were incubated for an additional 4 hours. The plates were harvested and the incorporation of 3H-TdR was determined in a liquid scintillation counter. The CPM data was then used to calculate experimental IC50 values for the compounds tested. Again, IC50 is defined as that concentration of compound resulting in 50% inhibition of 3H-TdR incorporation of the positive control.

Series [2] concerns Balb/3T3 cells. Description: Balb/3T3 cytotoxicity assay (BCECF-AM). The class given is cell-based. Conditions: FIGS. 8C, 8D. The procedure: In conjuction with the Balb/3T3 proliferation assay conducted above, a Balb/3T3 cytotoxicity assay was conducted to determine that the inhibition on proliferation was not due to cytotoxic effects. This assay is similar to the assay decribed above except tritiated thymidine was not added and after 18-24 hours incubation with PDGF/BB and a lOuM solution of 2,7-bis-(2-carboxyethyl)-5(and-6)carboxyflouresceinacetoxymethyl ester (BCECF-AM) was added for 30 minutes at 37° C. (BCECF is a compound that when cleaved by esterases, yields a fluorescent product in viable cells only, therefore providing a measure of viable cell numbers). Following sufficient incubation, BCECF is replaced with PBS and the plate examined with flourescence in a Millipore "cytofluor." The data is compiled and plotted.

The test system of series [3] is murine splenocytes. The experiment in a line: murine splenocyte proliferation co-stimulated by anti-mu and IL-4 (FIG. 11). Conditions: Mus musculus, anti-mu / IL-4 12.5 ng/ml. The class given is cell-based. The procedure: This example illustrates inhibitive effects of compounds nos. 1439, 1553S, 1560 and 1565 on murine splenocyte proliferation co-stimulated by anti-mu ([…]) and interleukin-4 (IL-4, 12.5 ng/ml). This in vitro assay, described above, is indicative of immune-suppressive/autoimmune treatment assay emphasizing humoral or B cell immune response. This assays are a predictive model for treatment or prevention of autoimmune diseases, such as diabetes, lupus, arthritis, and the like. The assay measures immunosuppressive activity of a drug at the B cell level. Spleens from adult mice contain immature B cells that express surface IgM. Cross-linking the surface IgM with an anti-mu antibody results in B cell proliferation. Additionally, this activation results in an increased expression of interleukin-4 receptors(IL-4R) on the surface of such cells. IL-4 acts as a growth factor for B cells and will increase the amount of proliferation induced by anti-mu.
A mixture of anti-mu and murine IL-4 is added to murine splenocytes to cause their proliferation. Mice spleens are obtained from adult mice and a single cell suspension is prepared in RPMI 1640 medium supplemented with 10% FCS. Cells (200,000) are plated into flat-bottomed wells and pre-incubated for 1-2 hours with various concentrations of inventive compound or PBS if it is a control. A mixture of anti-mu and murine is added to the wells at a final concentration of 5 μg/ml anti-mu and 12.5 ng/ml IL-4 and plates are incubated for three days. Proliferation is determined on the third day with a pulse of tritiated thymidine. The IC50 concentration of a particular drug is the concentration of drug that results in a 50% inhibition of the proliferation obtained from the positive control.

For series [4], the system named is thymocytes. The experiment in a line: murine thymocyte proliferation assay co-stimulated by ConA and IL-2 (FIGS. 7A-7E). Format: cell-based, Balb/C mice. Conditions: Mus musculus.

SMILES strings stand for the structures.

For orientation: IC50 means the midpoint of a concentration-inhibition curve. Low readings indicate greater potency in that assay, high ones weaker potency in that assay.

For `Cn1cnc2c1c(=O)n(CCCCCCCC1CO1)c(=O)n2C` (centres unmarked) [Compound 1560, 1-(8,9-Oxidononyl)-3,7-dimethylxanthine], the IC50 in series [1] was 34 µM; in series [3], 29 µM; in series [4] (FIG. 7C), 22 µM; in series [4] (FIGS. 7D and 7E) it was 14 µM. For the same compound, the cytotoxic effects result in series [2] is recorded as “without exhibiting cytotoxic effects”.

The values above are taken from patent US5866576A, “Epoxide-containing compounds” (Cell Therapeutics, Inc., priority 1997, dated 1999).
